According to the NIST ThermoML archive (doi:10.1016/j.jct.2008.05.014):
± gives the expanded uncertainty stated by the source.

Experiment: xn = mol fraction of the nth substance listed
Settings: Liquid; for speed of sound: Pulse-echo method

CCCCCCCCCCCC [dodecane] + CCCCCCC
Settings | mass density [kg/m3] | speed of sound [m/s]
298.15 K, 91180 kPa, x2 = 0.5003 | – | 1642.1 ± 2.6
298.15 K, 101320 kPa, x2 = 0.1014 | – | 1704.4 ± 2.6
298.15 K, 101320 kPa, x2 = 0.4999 | – | 1676 ± 2.6
298.15 K, 101320 kPa, x2 = 0.5003 | – | 1676.4 ± 2.6
298.16 K, 101 kPa, x2 = 0 | – | 1278.9 ± 1.6
298.16 K, 101 kPa, x2 = 0.3002 | – | 1246.5 ± 1.6
298.16 K, 101 kPa, x2 = 0.3996 | 726.184 ± 0.66 | –
298.16 K, 101 kPa, x2 = 0.6 | 713.735 ± 0.67 | 1205.1 ± 1.6
298.16 K, 101 kPa, x2 = 0.8995 | – | 1151.9 ± 1.6
298.16 K, 15200 kPa, x2 = 0 | – | 1365.9 ± 2.4
298.16 K, 15200 kPa, x2 = 0.3007 | – | 1336 ± 2.4
298.16 K, 15200 kPa, x2 = 0.4999 | – | 1314.6 ± 2.4
298.16 K, 15200 kPa, x2 = 0.7007 | – | 1286.6 ± 2.4
298.16 K, 30390 kPa, x2 = 0 | – | 1440 ± 2.4
298.16 K, 30390 kPa, x2 = 0.3007 | – | 1413 ± 2.4
298.16 K, 30390 kPa, x2 = 0.7007 | – | 1368.2 ± 2.4
298.16 K, 45580 kPa, x2 = 0 | – | 1507 ± 2.4
298.16 K, 45590 kPa, x2 = 0.3007 | – | 1481.9 ± 2.4
298.16 K, 60790 kPa, x2 = 0 | – | 1568 ± 2.5
298.16 K, 75990 kPa, x2 = 0 | – | 1625.2 ± 2.5
298.16 K, 75990 kPa, x2 = 0.3007 | – | 1602.7 ± 2.5
298.16 K, 91180 kPa, x2 = 0 | – | 1677.7 ± 2.5
298.16 K, 91180 kPa, x2 = 0.3007 | – | 1656.7 ± 2.5
298.16 K, 91180 kPa, x2 = 0.7007 | – | 1623.2 ± 2.6
298.16 K, 101320 kPa, x2 = 0 | – | 1711.1 ± 2.6
298.16 K, 101320 kPa, x2 = 0.3007 | – | 1690.7 ± 2.6
298.16 K, 101320 kPa, x2 = 0.7007 | – | 1658.1 ± 2.6
298.17 K, 101 kPa, x2 = 0.7002 | – | 1188.8 ± 1.6
298.17 K, 101 kPa, x2 = 0.8 | – | 1171.2 ± 1.6
298.17 K, 15200 kPa, x2 = 0.1014 | – | 1356.6 ± 2.4
298.17 K, 15200 kPa, x2 = 0.8496 | – | 1264.5 ± 2.4
298.17 K, 30390 kPa, x2 = 0.8496 | – | 1348.6 ± 2.4
298.17 K, 45590 kPa, x2 = 0.8496 | – | 1422.9 ± 2.4
298.17 K, 60790 kPa, x2 = 0.8496 | – | 1489.9 ± 2.5
298.17 K, 75990 kPa, x2 = 0.8496 | – | 1551 ± 2.5
298.17 K, 91180 kPa, x2 = 0.8496 | – | 1608.3 ± 2.6
298.17 K, 101320 kPa, x2 = 0.8496 | – | 1644.1 ± 2.6
298.18 K, 101 kPa, x2 = 0.1007 | – | 1268.9 ± 1.6
298.18 K, 101 kPa, x2 = 0.3996 | – | 1233.8 ± 1.6
298.18 K, 101 kPa, x2 = 0.5002 | – | 1219.9 ± 1.6
298.18 K, 30390 kPa, x2 = 0.1014 | – | 1431.7 ± 2.4
298.19 K, 101 kPa, x2 = 0.2001 | – | 1258.1 ± 1.6
303.12 K, 15200 kPa, x2 = 0.9391 | – | 1228.3 ± 2.4
303.12 K, 30390 kPa, x2 = 0.9391 | – | 1315.5 ± 2.4
303.12 K, 30390 kPa, x2 = 0.97 | – | 1312 ± 2.4
303.12 K, 45590 kPa, x2 = 0.9391 | – | 1392 ± 2.4
303.12 K, 45590 kPa, x2 = 0.97 | – | 1388.9 ± 2.4
303.12 K, 60790 kPa, x2 = 0.9391 | – | 1461.1 ± 2.5
303.12 K, 60790 kPa, x2 = 0.97 | – | 1458.4 ± 2.5
303.12 K, 75990 kPa, x2 = 0.9391 | – | 1523.8 ± 2.5
303.12 K, 75990 kPa, x2 = 0.97 | – | 1521.5 ± 2.5
303.12 K, 91180 kPa, x2 = 0.9391 | – | 1582 ± 2.6
303.12 K, 91180 kPa, x2 = 0.97 | – | 1579.9 ± 2.6
303.12 K, 101320 kPa, x2 = 0.9391 | – | 1618.9 ± 2.6
303.12 K, 101320 kPa, x2 = 0.97 | – | 1616.9 ± 2.6
303.13 K, 15200 kPa, x2 = 0.97 | – | 1224 ± 2.4
303.13 K, 101320 kPa, x2 = 0.1014 | – | 1691.2 ± 2.6
303.13 K, 101320 kPa, x2 = 0.5003 | – | 1663 ± 2.6
303.14 K, 101 kPa, x2 = 0.6 | – | 1184.8 ± 1.6
303.14 K, 101 kPa, x2 = 0.8995 | – | 1130.7 ± 1.6
303.14 K, 15200 kPa, x2 = 0.1014 | – | 1339.1 ± 2.4
303.14 K, 15200 kPa, x2 = 0.4999 | – | 1296.5 ± 2.4
